# According to patent US9750759B2, “Antitumoral compounds” (priority 2008, dated 2017):
# Like-named read-outs stand apart in the source and are kept apart here.
# Assays:
# Assay in all cases: cells
# Format in all cases: cell-based
# HT29 = conditions: Homo sapiens; for GI50: concentration that produces 50% growth inhibition; for IC (total growth inhibition): total growth inhibition (cytostatic effect), read-out: TGI
# Description: (§1) The aim of this assay is to evaluate the in vitro cytostatic (ability to delay or arrest tumor cell growth) or cytotoxic (ability to kill tumor cells) activity of the samples being tested.
# (§2) A colorimetric type of assay, using sulforhodamine B (SRB) reaction has been adapted for a quantitative measurement of cell growth and viability (following the technique described by Skehan P et al. J. Natl. Cancer Inst. 1990, 82, 1107-1112).
# (§3) This form of assay employs SBS-standard 96-well cell culture microplates (Faircloth et al. Methods in cell science, 1988, 11(4), 201-205; Mosmann et al, Journal of Immunological. Methods, 1983, 65(1-2), 55-63). All the cell lines used in this study, derived from different types of human cancer, were obtained from the American Type Culture Collection (ATCC).
# (§4) Cells were maintained in Dulbecco's Modified Eagle Medium (DMEM) supplemented with 10% Fetal Bovine Serum (FBS), 2 mM L-glutamine, 100 U/mL penicillin and 100 U/mL streptomycin at 37° C., 5% CO2 and 98% humidity. For the experiments, cells were harvested from subconfluent cultures using trypsinization and resuspended in fresh medium before counting and plating.
# (§5) Cells were seeded in 96 well microtiter plates at 5×10^3 cells per well in aliquots of 150 μL, and allowed to attach to the plate surface for 18 hours in drug free medium. One control (untreated) plate of each cell line was fixed (as described below) and used for time zero reference value. Afterwards, test samples were added to the cultures in ten serial dilutions, in aliquots of 50 μL, ranging from 10 to 0.00262 μg/mL. After 48 hours exposure, the antitumor effect was estimated by the SRB method: Briefly, cells were washed twice with PBS, fixed for 15 min in 1% glutaraldehyde solution, rinsed twice in PBS, and stained in 0.4% SRB solution for 30 min at room temperature. Cells were then rinsed several times with 1% acetic acid solution and air-dried. SRB was then extracted in 10 mM trizma base solution and the absorbance measured in an automated spectrophotometric plate reader at 490 nm. Cell survival was expressed as percentage of control cell growth. The final effect of the sample being tested was estimated by applying the NCI algorithm (Boyd M R and Paull K D. Drug Dev. Res. 1995, 34, 91-104).
# (§6) Using the mean±SD of triplicate cultures, a dose-response curve was automatically generated using nonlinear regression analysis. Three reference parameters were calculated (NCI algorithm) by automatic interpolation: GI50=concentration that produces 50% growth inhibition; TGI=total growth inhibition (cytostatic effect) and LC50=concentration that produces 50% net cell killing (cytotoxic effect).
# A549 = conditions: Homo sapiens; for GI50: concentration that produces 50% growth inhibition; for IC (total growth inhibition): read-out: TGI
# Description: as §1, §2, §3, §4, §5, §6
# MDA-MB-231 = conditions: Homo sapiens; for IC (total growth inhibition): read-out: TGI; for GI50: concentration that produces 50% growth inhibition
# Description: as §1, §2, §3, §4, §5, §6
# [1] = A549, 48 hours exposure, total growth inhibition (cytostatic effect)
# [2] = MDA-MB-231, 48 h, read-out: LC50
# [3] = MDA-MB-231, 48 hours exposure, total growth inhibition (cytostatic effect)
# [4] = HT-29, HT29, 48 hours exposure, concentration that produces 50% net cell killing, read-out: LC50 (the source's name)
# [5] = A549, 48 hours exposure, concentration that produces 50% net cell killing, read-out: LC50 (the source's name)
# [6] = MDA-MB-231, 48 hours exposure, concentration that produces 50% net cell killing, read-out: LC50 (the source's name)
Compound,"CC50 (HT29; HT-29, 48 h, read-out: LC50)","GI50 (HT29; HT-29, HT29, 48 hours exposure)","IC (total growth inhibition) (HT29; HT-29, HT29, 48 hours exposure)","CC50 (A549; A549, 48 h, read-out: LC50)","GI50 (A549; A549, 48 hours exposure)",IC (total growth inhibition) (A549; [1]),CC50 (MDA-MB-231; [2]),"IC (total growth inhibition) (MDA-MB-231; MDA-MB-231, 48 h)","GI50 (MDA-MB-231; MDA-MB-231, 48 hours exposure)","IC (total growth inhibition) (A549; A549, 48 h)",IC (total growth inhibition) (MDA-MB-231; [3]),CC50 (HT29; [4]),CC50 (A549; [5]),CC50 (MDA-MB-231; [6])
C/C=C\C[C@@H](C/C=C\NC(=O)[C@@H](NC(=O)C#C/C=C\C(C)=C\[C@H](C)[C@@H]1CC=C(OC)C(=O)O1)C(C)(C)C)OC(N)=O [Compound 81],> 17.6 µM,1260 nM,2.98 µM,> 17.6 µM,2.28 µM,8.43 µM,> 17.6 µM,> 17.6 µM,2.98 µM,–,–,–,–,–
COC1=CC[C@@H]([C@@H](C)/C=C\C=C/C(=O)N[C@H](C(=O)N/C=C\C[C@H](C/C=C(\C)Cl)OC(N)=O)C(C)(C)C)OC1=O [Compound 69],> 17.7 µM,173 nM,0.424 µM,> 17.7 µM,0.23 µM,–,8.13 µM,–,0.336 µM,> 17.7 µM,1.63 µM,–,–,–
COC1=CC[C@@H]([C@@H](C)/C=C\C=C/C(=O)N[C@H](C(=O)N/C=C\C[C@H](C/C=C(\C)Cl)O[Si](C)(C)C(C)(C)C)C(C)(C)C)OC1=O [Compound 67],–,1880 nM,2.35 µM,–,1.57 µM,2.82 µM,–,–,0.91 µM,–,1.04 µM,3.14 µM,4.86 µM,1.21 µM
C/C=C\C[C@H](O)C/C=C\NC(=O)[C@@H](NC(=O)C#C/C=C\C(C)=C\[C@H](C)[C@@H]1CC=C(OC)C(=O)O1)C(C)(C)C [Compound 80],> 19 µM,49.4 nM,0.0949 µM,> 19 µM,0.093 µM,0.304 µM,> 19 µM,–,0.152 µM,–,> 19 µM,–,–,–
C/C=C\C[C@@H](C/C=C\NC(=O)[C@@H](NC(=O)C#C/C=C\C(C)=C\[C@H](C)[C@@H]1CC=C(OC)C(=O)O1)C(C)(C)C)O[Si](c1ccccc1)(c1ccccc1)C(C)(C)C [Compound 79],–,5100 nM,> 13.1 µM,–,> 13.1 µM,> 13.1 µM,–,–,> 13.1 µM,–,> 13.1 µM,> 13.1 µM,> 13.1 µM,> 13.1 µM
COC1=CC[C@@H]([C@@H](C)/C=C(C)/C=C\C#CC(=O)N[C@H](C(=O)N/C=C\C[C@H](C/C=C(\C)Cl)O[Si](C)(C)C(C)(C)C)C(C)C)OC1=O [Compound 64b],–,423 nM,0.65 µM,–,0.68 µM,3.33 µM,–,–,1.33 µM,–,> 15.1 µM,2.42 µM,> 15.1 µM,> 15.1 µM
CC#CC[C@@H](C/C=C\NC(=O)[C@@H](NC(=O)\C=C/C=C\C(C)=C\[C@H](C)[C@@H]1CC=C(OC)C(=O)O1)C(C)(C)C)O[Si](c1ccccc1)(c1ccccc1)C(C)(C)C [Compound 70],–,1960 nM,2.74 µM,–,2.09 µM,2.61 µM,–,–,1.7 µM,–,2.48 µM,4.05 µM,3.27 µM,3.53 µM
COC1=CC[C@@H]([C@@H](C)/C=C(C)/C=C\C=C/C(=O)N[C@H](C(=O)N/C=C\C[C@H](C/C=C(\C)Cl)OC(N)=O)C(C)(C)C)O[C@H]1O [Compound 85],0.00197 µM,0.345 nM,0.000625 µM,> 0.0164 µM,0.000723 µM,0.00164 µM,> 0.0164 µM,–,0.00102 µM,–,0.00181 µM,–,–,–
C/C=C\C[C@@H](C/C=C\NC(=O)[C@@H](NC(=O)\C=C/C=C\C(C)=C\[C@H](C)[C@@H]1CC=C(OC)[C@H](O)O1)C(C)(C)C)OC(N)=O [Compound 89],0.000227 µM,0.0802 nM,0.000127 µM,0.000819 µM,0.000138 µM,0.000279 µM,> 0.00174 µM,> 0.00174 µM,0.000296 µM,–,–,–,–,–
COC1=CC[C@@H]([C@@H](C)/C=C(C)/C=C\C#CCCC(=O)N[C@H](C(=O)N/C=C\C[C@H](C/C=C(\C)Cl)O[Si](c2ccccc2)(c2ccccc2)C(C)(C)C)C(C)(C)C)OC1=O [Compound 98],–,53.2 nM,0.0701 µM,–,0.111 µM,0.495 µM,–,–,0.104 µM,–,0.181 µM,0.169 µM,> 12.1 µM,> 12.1 µM
COC1=CC[C@@H]([C@@H](C)/C=C(C)/C=C\C#CC(=O)N[C@H](C(=O)N/C=C\C[C@H](C/C=C(\C)Cl)OC(N)=O)C(C)C)OC1=O [Compound 66b],0.0424 µM,22 nM,0.0288 µM,> 16.9 µM,0.0254 µM,0.0813 µM,4.58 µM,–,0.0271 µM,–,0.373 µM,–,–,–
COC1=CC[C@@H]([C@@H](C)/C=C(C)/C=C\C#CC(=O)N[C@H](C(=O)N/C=C\C[C@@H](O)C/C=C(\C)Cl)C(C)C)OC1=O [Compound 65b],> 18.3 µM,183 nM,0.494 µM,> 18.3 µM,0.311 µM,1.81 µM,> 18.3 µM,> 18.3 µM,0.548 µM,–,–,–,–,–
C/C=C\C[C@H](O)C/C=C\NC(=O)[C@@H](NC(=O)/C=C\C#C/C(C)=C/[C@H](C)[C@@H]1CC=C(OC)C(=O)O1)C(C)(C)C [Compound 96],> 19 µM,5890 nM,8.92 µM,> 19 µM,7.78 µM,> 19 µM,> 19 µM,–,13.1 µM,–,> 19 µM,–,–,–
COC1=CC[C@@H]([C@@H](C)/C=C\C=C/C(=O)N[C@H](C(=O)N/C=C\C[C@@H](O)C/C=C(\C)Cl)C(C)(C)C)OC1=O [Compound 68],> 19.1 µM,459 nM,0.707 µM,> 19.1 µM,1.47 µM,4.21 µM,6.5 µM,–,0.784 µM,–,1.49 µM,–,–,–
COC1=CC[C@@H]([C@@H](C)/C=C(C)/C=C\C#CCCC(=O)N[C@H](C(=O)N/C=C\C[C@@H](O)C/C=C(\C)Cl)C(C)(C)C)OC1=O [Compound 99],5.77 µM,900 nM,2.21 µM,12.2 µM,3.06 µM,6.62 µM,13.2 µM,–,2.72 µM,–,6.11 µM,–,–,–
COC1=CC[C@@H]([C@@H](C)/C=C(C)/C=C\C#CCCC(=O)N[C@H](C(=O)N/C=C\C[C@H](C/C=C(\C)Cl)OC(N)=O)C(C)(C)C)OC1=O [Compound 100],7.59 µM,53.8 nM,0.301 µM,> 15.8 µM,0.395 µM,2.21 µM,> 15.8 µM,> 15.8 µM,0.348 µM,–,–,–,–,–
CC#CC[C@H](O)C/C=C\NC(=O)[C@@H](NC(=O)\C=C/C=C\C(C)=C\[C@H](C)[C@@H]1CC=C(OC)C(=O)O1)C(C)(C)C [Compound 71],> 19 µM,58.9 nM,0.175 µM,8.54 µM,0.266 µM,1.84 µM,> 19 µM,–,0.209 µM,–,2.85 µM,–,–,–
